Data on 53 compounds can be found in the RepoRT retention time repository (doi:10.1021/acs.analchem.2c02893).

The data set is described as follows: RP, Thermo Scientific Acclaim RSLC 120 C18, 100 × 2.1 mm, 2.2 µm, 30 °C, 0.2 mL/min, estimated dead time 1.1 min; A: 90% water + 10% methanol + 0.01% formic acid + 5 mM ammonium formate, pH 3.61; B: methanol + 0.01% formic acid + 5 mM ammonium formate, pH 3.61; gradient (min/%B) 0/1 1/1 2/39 13/99.9 15/99.9 15.1/1 20.1/1. The settings on record: stereoisomer not certain.
Regarding `O=C(Oc1cccc2ccccc12)c1nn(CCCCCF)c2ccccc12` [SDB-005-5F], the LC retention time is 12.1 min. The same measure for `CCCCCn1nc(C(=O)Oc2cccc3ccccc23)c2ccccc21` [SDB-005]: 13.1 min. Consider `CCCCCn1cc(C(=O)Nc2ccccc2)c2ccccc21` [SDB-006 N-phenyl], for which the LC retention time was 11.3 min. Turning to `O=C(NCc1ccccc1)c1cn(CCCCCF)c2ccccc12` [SDB-006-5F], the LC retention time was 10 min.

Take `CCCCCn1cc(C(=O)NCc2ccccc2)c2ccccc21` [SDB-006]: the LC retention time was 11.2 min. The same measure for `O=C(NC12CC3CC(CC(C3)C1)C2)c1cn(CCCCCF)c2ccccc12` [STS-135]: 12.2 min.

Regarding `COC(=O)Nc1ccc(Cl)c(Cl)c1` [SWEP.MCC], the LC retention time was 9.68 min. The same measure for `CC(C)NC(=O)c1ccccc1O` [Salicylamide-N-Isopropyl]: 7.14 min; for `NC(=O)c1ccccc1O` [Salicylamide]: 4.76 min; for `O=C(Nc1ccc(C(=O)O)c(O)c1)c1ccccc1` [Salicylic acid-4-Benzamido]: 5.47 min. Consider `OCc1cc(C(O)CNCCCCCCOCCCCc2ccccc2)ccc1O` (stereo not drawn) [Salmeterol], for which the LC retention time was 8.83 min. Regarding `O=C(O)c1cn(-c2ccc(F)cc2)c2cc(N3CCNCC3)c(F)cc2c1=O` [Sarafloxacin], the LC retention time was 4.83 min.

Take `CN(C)P(=O)(OP(=O)(N(C)C)N(C)C)N(C)C` [Schradan]: the LC retention time is 5.36 min.

For the compound `C[N+]1(C)C2CC(OC(=O)C(CO)c3ccccc3)CC1C1OC12` (stereo not drawn) [Scopolamine-Methyl], the LC retention time was 3.88 min.

As to `CN1C2CC(OC(=O)C(CO)c3ccccc3)CC1C1OC12` (stereo not drawn) [Scopolamine], the LC retention time is 3.83 min. In the case of `CCNc1nc(Cl)nc(NC(C)CC)n1` (stereo not drawn) [Sebuthylazine], the LC retention time was 9.09 min. `CCNc1nc(NC(C)CC)nc(OC)n1` (stereo not drawn) [Secbumeton]: the LC retention time is 8.79 min. The same measure for `NNC(N)=O` [Semicarbazide (SEM)]: 1.33 min; for `CC=C1CC(C)C(C)(O)C(=O)OCC2=CC[N+]3([O-])CCC(OC1=O)C23` (stereo not drawn) [Senecionine-N-oxide]: 5.07 min; for `CC=C1CC(C)C(C)(O)C(=O)OCC2=CCN3CCC(OC1=O)C23` (stereo not drawn) [Senecionine]: 4.62 min. The same measure for `C=C1CC(=CC)C(=O)OC2CC[N+]3([O-])CC=C(COC(=O)C1(C)O)C23` (stereo not drawn) [Seneciphylline-N-oxide]: 4.5 min.

Turning to `C=C1CC(=CC)C(=O)OC2CCN3CC=C(COC(=O)C1(C)O)C23` (stereo not drawn) [Seneciphylline], the LC retention time is 4.17 min. The value for `CC=C1CC(C)C(C)(O)C(=O)OCC2=CCN(C)CCC(OC1=O)C2=O` (stereo not drawn) [Senkirkine] was 5.16 min. The same measure for `O=C1NCCN1CCN1CCC(c2cn(-c3ccc(F)cc3)c3ccc(Cl)cc23)CC1` [Sertindole]: 9.26 min; for `NC1CCC(c2ccc(Cl)c(Cl)c2)c2ccccc21` (stereo not drawn) [Sertraline-Desmethyl]: 9.02 min; for `CNC1CCC(c2ccc(Cl)c(Cl)c2)c2ccccc21` (stereo not drawn) [Sertraline]: 8.94 min.

Turning to `CNC(CC(C)C)C1(c2ccc(Cl)cc2)CCC1` (stereo not drawn) [Sibutramine-Nor], the LC retention time was 8.68 min. The same measure for `CC(C)CC(N(C)C)C1(c2ccc(Cl)cc2)CCC1` (stereo not drawn) [Sibutramine]: 8.66 min; for `CC1CCCCC1NC(=O)Nc1ccccc1` (stereo not drawn) [Siduron]: 9.37 min; for `CCCc1nn(C)c2c(=O)[nH]c(-c3cc(S(=O)(=O)N4CCCCC4)ccc3OCC)nc12` [Sildenafil Norneo]: 10.9 min.

Regarding `CCCc1nn(C)c2c(=S)nc(-c3cc(S(=O)(=O)N4CC(C)NC(C)C4)ccc3OCC)[nH]c12` (stereo not drawn) [Sildenafil Thiodimethyl], the LC retention time is 9.91 min. In the case of `CCCc1nn(C)c2c(=S)nc(-c3cc(S(=O)(=O)N4CCN(CC)CC4)ccc3OCC)[nH]c12` [Sildenafil Thiohomo], the LC retention time was 10.6 min. The same measure for `CCCc1nn(C)c2c(=O)[nH]c(-c3cc(S(=O)(=O)N4CCN(Cc5ccccc5)CC4)ccc3OCC)nc12` [Sildenafil-Benzyl]: 11.5 min; for `CCCc1nn(C)c2c(=O)[nH]c(-c3cc(S(=O)(=O)N4CC(C)NC(C)C4)ccc3OCC)nc12` (stereo not drawn) [Sildenafil-Dimethyl]: 7.6 min; for `CCCc1nn(C)c2c(=O)[nH]c(-c3cc(S(=O)(=O)N4CCN(CCO)CC4)ccc3OCC)nc12` [Sildenafil-Hydroxyhomo]: 7.83 min. The value for `CCCc1nn(C)c2c(=S)nc(-c3cc(S(=O)(=O)N4CCN(CCO)CC4)ccc3OCC)[nH]c12` [Sildenafil-Hydroxythiohomo] was 10.5 min; that for `CCCc1nn(C)c2c(=S)nc(-c3cc(S(=O)(=O)N4CCN(C)CC4)ccc3OCC)[nH]c12` [Sildenafil-Thio] was 10.6 min. The same measure for `CCCc1nn(C)c2c(=O)[nH]c(-c3cc(S(=O)(=O)N4CCN(C)CC4)ccc3OCC)nc12` [Sildenafil]: 7.88 min; for `CCNc1nc(NCC)[nH]c(=O)n1` [Simazine-2-hydroxy]: 4.21 min; for `CCNc1nc(Cl)nc(NCC)n1` [Simazine]: 7.07 min.

For the compound `CCNc1nc(NCC)nc(SC)n1` [Simetryn], the LC retention time is 8.14 min. `CCC(C)(C)C(=O)OC1CC(C)C=C2C=CC(C)C(CCC3CC(O)CC(=O)O3)C21` (stereo not drawn) [Simvastatin]: the LC retention time is 12.6 min. In the case of `NC(CC(=O)N1CCn2c(nnc2C(F)(F)F)C1)Cc1cc(F)c(F)cc1F` (stereo not drawn) [Sitagliptin], the LC retention time was 5.08 min. For the compound `O=C(OC1CN2CCC1CC2)N1CCc2ccccc2C1c1ccccc1` (stereo not drawn) [Solifenacin], the LC retention time was 7.95 min. Take `CC(C)NCC(O)c1ccc(NS(C)(=O)=O)cc1` (stereo not drawn) [Sotalol]: the LC retention time was 2.96 min. The value for `CCC1CCCC(OC2CCC(N(C)C)C(C)O2)C(C)C(=O)C2=CC3C(C=C(C)C4CC(OC5OC(C)C(OC)C(OC)C5OC)CC43)C2CC(=O)O1` (stereo not drawn) [Spinosad D] was 11.8 min; that for `CCC1CCCC(OC2CCC(N(C)C)C(C)O2)C(C)C(=O)C2=CC3C(C=CC4CC(OC5OC(C)C(OC)C(OC)C5OC)CC43)C2CC(=O)O1` (stereo not drawn) [Spinosyn A] was 11.2 min. The value for `CCOC(=O)C(CCc1ccccc1)NC(C)C(=O)N1CC2(CC1C(=O)O)SCCS2` (stereo not drawn) [Spirapril] was 8.23 min. The value for `Cc1cc(C)c(C2=C(OC(=O)CC(C)(C)C)C3(CCCC3)OC2=O)c(C)c1` [Spiromesifen] was 12.8 min. Take `CC(=O)SC1CC2=CC(=O)CCC2(C)C2CCC3(C)C(CCC34CCC(=O)O4)C12` (stereo not drawn) [Spironolactone]: the LC retention time was 9.24 min.

As for `CCCN(CC)CC1COC2(CCC(C(C)(C)C)CC2)O1` (stereo not drawn) [Spiroxamine], the LC retention time is 9.32 min. The same measure for `CC12Cc3cn[nH]c3CC1CCC1C2CCC2(C)C1CCC2(C)O` (stereo not drawn) [Stanozolol]: 11.3 min. As for `O=C1CC2OCC=C3CN4CCC56c7ccccc7N1C5C2C3CC46` (stereo not drawn) [Strychnine], the LC retention time was 4.16 min.
